The values that follow come from article PMC7614683, “A small molecule PI3Kα activator for cardioprotection and neuroregeneration” (Nature, 2023).

What all share (experiment): SelectScreen Z-LYTE kinase activity assay (SI Table 6)
Holding throughout (format): biochemical

Assay [1] deals with T1, protein kinases of the Z-LYTE panel (Homo sapiens, UniProt O14920).
T1 sequence (O14920 1-756): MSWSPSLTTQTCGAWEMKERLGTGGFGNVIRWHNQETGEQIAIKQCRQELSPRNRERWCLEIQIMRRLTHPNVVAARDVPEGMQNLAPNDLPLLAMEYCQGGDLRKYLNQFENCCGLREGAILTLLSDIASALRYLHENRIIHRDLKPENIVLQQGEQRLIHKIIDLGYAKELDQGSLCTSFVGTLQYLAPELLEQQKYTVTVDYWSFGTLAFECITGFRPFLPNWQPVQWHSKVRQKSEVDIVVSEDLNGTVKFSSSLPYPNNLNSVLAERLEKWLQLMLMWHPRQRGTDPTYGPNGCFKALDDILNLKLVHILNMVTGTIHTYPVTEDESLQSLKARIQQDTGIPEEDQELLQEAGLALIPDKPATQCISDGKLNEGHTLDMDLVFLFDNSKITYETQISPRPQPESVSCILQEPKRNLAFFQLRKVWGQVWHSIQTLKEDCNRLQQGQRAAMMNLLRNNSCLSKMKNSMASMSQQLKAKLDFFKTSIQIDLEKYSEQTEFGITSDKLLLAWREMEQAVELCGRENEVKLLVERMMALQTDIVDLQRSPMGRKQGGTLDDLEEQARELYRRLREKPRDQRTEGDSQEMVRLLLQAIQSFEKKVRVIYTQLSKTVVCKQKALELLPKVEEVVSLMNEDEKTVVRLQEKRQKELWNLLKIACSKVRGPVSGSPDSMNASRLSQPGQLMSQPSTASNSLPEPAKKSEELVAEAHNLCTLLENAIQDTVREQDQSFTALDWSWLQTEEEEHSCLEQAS
In outline: (§1)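 Percent effect values derive from SelectScreen Adapta, Lantha and Z-LYTE assays in which 1938 was present at 1 μM, spanning 133 protein kinases and 7 lipid kinases.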

In assay [2] the target is protein kinases of the Z-LYTE panel (Homo sapiens, UniProt P08922). The method, boiled down:
as §1

Assay [3] has as its target T2, protein kinases of the Z-LYTE panel (Homo sapiens, UniProt P54760).
T2 sequence (P54760 16-987): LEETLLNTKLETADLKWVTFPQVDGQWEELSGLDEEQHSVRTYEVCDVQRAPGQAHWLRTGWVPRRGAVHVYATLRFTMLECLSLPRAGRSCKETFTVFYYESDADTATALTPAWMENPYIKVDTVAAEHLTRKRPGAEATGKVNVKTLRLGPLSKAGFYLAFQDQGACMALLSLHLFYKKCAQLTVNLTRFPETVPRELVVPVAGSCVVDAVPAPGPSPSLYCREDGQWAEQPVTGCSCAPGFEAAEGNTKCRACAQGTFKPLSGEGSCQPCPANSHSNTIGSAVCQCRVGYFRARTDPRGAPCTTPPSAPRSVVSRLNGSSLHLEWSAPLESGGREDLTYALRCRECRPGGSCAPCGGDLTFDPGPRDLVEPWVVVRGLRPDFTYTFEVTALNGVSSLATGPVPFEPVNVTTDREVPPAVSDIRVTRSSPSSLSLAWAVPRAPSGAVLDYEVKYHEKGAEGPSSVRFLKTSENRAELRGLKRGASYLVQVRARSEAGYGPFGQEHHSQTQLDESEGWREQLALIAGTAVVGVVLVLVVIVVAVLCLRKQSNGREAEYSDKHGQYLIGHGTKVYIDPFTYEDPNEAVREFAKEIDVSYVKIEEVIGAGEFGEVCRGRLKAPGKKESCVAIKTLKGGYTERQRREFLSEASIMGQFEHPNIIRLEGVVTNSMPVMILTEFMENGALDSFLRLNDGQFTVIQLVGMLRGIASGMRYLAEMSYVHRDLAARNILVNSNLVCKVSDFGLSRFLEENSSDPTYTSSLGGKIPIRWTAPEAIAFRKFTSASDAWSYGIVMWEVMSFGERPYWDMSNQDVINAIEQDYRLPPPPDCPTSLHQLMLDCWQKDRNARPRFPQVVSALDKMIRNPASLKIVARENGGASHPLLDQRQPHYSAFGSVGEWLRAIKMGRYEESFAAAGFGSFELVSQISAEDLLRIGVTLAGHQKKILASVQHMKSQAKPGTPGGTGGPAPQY
The method, boiled down:
as §1

Where two headings read alike, the source gives them in different places.

Sequence of protein kinases of the Z-LYTE panel (Homo sapiens, UniProt P08922) (P08922 28-2347): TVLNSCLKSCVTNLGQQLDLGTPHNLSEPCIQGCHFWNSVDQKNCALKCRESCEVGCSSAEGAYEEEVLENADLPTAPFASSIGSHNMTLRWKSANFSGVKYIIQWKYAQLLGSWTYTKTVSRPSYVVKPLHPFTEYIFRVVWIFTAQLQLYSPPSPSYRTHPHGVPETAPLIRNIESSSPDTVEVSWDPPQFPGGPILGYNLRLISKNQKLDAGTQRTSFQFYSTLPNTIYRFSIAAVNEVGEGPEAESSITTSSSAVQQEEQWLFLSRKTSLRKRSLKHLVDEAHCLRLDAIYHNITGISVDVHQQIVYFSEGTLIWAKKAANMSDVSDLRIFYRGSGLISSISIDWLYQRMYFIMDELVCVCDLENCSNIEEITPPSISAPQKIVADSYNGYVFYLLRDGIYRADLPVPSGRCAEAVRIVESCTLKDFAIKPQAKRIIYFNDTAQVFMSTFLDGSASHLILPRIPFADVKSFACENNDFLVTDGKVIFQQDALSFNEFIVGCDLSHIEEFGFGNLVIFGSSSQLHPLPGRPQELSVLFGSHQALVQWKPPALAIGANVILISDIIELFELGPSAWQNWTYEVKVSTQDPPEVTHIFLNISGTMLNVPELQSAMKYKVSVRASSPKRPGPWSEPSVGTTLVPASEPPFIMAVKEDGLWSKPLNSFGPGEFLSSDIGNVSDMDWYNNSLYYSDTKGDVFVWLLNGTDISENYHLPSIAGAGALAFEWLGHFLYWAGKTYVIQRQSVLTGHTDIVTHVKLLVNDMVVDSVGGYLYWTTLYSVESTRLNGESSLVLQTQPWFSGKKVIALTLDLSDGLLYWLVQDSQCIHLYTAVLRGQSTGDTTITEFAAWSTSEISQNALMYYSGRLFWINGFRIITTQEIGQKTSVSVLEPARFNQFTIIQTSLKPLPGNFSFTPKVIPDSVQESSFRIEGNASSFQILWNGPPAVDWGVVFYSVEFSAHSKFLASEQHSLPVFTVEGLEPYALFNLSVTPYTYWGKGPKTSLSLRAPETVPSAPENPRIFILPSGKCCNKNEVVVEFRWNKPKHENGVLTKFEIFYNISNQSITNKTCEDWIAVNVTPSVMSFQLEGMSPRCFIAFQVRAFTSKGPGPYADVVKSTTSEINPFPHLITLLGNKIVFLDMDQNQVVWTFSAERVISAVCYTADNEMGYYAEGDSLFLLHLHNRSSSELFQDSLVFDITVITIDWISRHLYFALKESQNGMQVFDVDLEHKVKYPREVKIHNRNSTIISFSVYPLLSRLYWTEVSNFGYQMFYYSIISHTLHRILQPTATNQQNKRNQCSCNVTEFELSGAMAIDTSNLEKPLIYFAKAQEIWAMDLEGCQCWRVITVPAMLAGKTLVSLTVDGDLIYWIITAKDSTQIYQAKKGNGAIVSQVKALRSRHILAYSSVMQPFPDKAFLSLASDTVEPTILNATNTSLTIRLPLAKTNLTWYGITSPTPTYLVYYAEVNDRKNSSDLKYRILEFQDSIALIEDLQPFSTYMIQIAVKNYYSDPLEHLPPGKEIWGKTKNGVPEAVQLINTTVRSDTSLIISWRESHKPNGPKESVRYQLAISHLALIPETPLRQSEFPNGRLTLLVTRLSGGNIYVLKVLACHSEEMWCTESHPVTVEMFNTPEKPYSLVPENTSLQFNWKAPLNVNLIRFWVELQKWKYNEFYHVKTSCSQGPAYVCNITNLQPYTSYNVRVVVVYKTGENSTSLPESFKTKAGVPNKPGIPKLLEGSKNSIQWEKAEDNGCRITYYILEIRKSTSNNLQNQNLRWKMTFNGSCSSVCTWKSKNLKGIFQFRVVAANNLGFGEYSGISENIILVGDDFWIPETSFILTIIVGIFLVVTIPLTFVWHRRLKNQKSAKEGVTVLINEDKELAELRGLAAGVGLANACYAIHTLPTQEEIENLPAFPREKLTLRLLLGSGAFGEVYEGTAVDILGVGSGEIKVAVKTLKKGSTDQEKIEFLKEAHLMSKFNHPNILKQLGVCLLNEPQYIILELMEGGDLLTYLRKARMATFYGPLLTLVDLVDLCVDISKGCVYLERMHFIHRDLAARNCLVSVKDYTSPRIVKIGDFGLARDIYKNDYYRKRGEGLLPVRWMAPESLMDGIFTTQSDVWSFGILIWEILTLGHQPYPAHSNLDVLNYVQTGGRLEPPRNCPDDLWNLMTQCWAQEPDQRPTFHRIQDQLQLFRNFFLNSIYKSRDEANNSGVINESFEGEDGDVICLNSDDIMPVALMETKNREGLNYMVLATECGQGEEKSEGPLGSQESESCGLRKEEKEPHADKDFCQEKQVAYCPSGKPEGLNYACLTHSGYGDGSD

As for `CCN1CCN(c2ccc(Nc3cc(Nc4cccc5c4N(C(C)=O)CC5)ccn3)cc2)CC1` [Compound 1938], the inhibition at 1 µM in assay [1] (read-out: % Inhibition Point 1) was 8.52%; in assay [1] (read-out: % Inhibition Point 2), 7%; in assay [1] (read-out: % Inhibition mean) it was 7.61%; in assay [2] (read-out: % Inhibition Point 1) it was 19%; in assay [2] (read-out: % Inhibition Point 2), 22%; in assay [2] (read-out: % Inhibition mean), 21%. In addition, the inhibition at 1 µM in assay [3] (read-out: % Inhibition Point 1) is 10%; in assay [3] (read-out: % Inhibition Point 2), -1.75%; in assay [3] (read-out: % Inhibition mean) it was 4%.
